Data on two sequences can be found in publication PMC11288129, “Diversely evolved xibalbin variants from remipede venom inhibit potassium channels and activate PKA-II and Erk1/2 signaling” (BMC Biology, 2024).

The test system of this assay is PKA-II (phospho-RIIα/β) in rat DRG neurons. Kind of assay: High-content imaging of PKA-II activity (pRII) in DRG sensory neurons. It is filed as cell-based. As to conditions: for PKA-II activation: 5 and 30 min, 0.005 to 0.8 µg/µL; for increase in phospho-PKA-II intensity: 5 min; for pRII response by neuron size: xibalbins 0.8 µg/µL. On the procedure: To gauge sensory neuron activity in response to various activating stimuli, including electrical activity, phosphorylation state detection of protein kinase A type II (PKA-II) and MAP kinase Erk1/2 can act as surrogate measurements. Consequently, we tested for increased phosphorylation states in a concentration-dependent manner following exposure to xibalbins. Dissociated DRG neurons were cultured overnight and then exposed to increasing concentrations of the corresponding xibalbins for 5 min and 30 min, respectively. As a positive control, forskolin (Fsk) was also used to induce cAMP synthesis. The activity of PKA-II was monitored by antibodies directed against the phosphorylation site of the inhibitory regulatory subunits RIIα/β, which is exclusively accessible when the catalytic kinase domain is released during kinase activation. For measuring Erk1/2 activity, phospho-sites on Erk1/2 (T202/Y204) were monitored through immunofluorescence, as these sites are phosphorylated during activation. Cellular images were captured using HCI microscopy (Fig. 8A), and the average intensity of each phospho-antibody was quantified (Fig. 8B).
Fig. 8 A Representative images of rat DRG neurons stimulated with PBS (Ctrl) and xib1b (0.8 µg/µL). Cells were stained for UCHL1, pRII, pERK1/2, and Hoechst followed by fixation and staining with standard immunocytochemistry protocols. Green-encircled neurons indicate automatically selected objects. Scale bar: 100 µm. B Mean intensities of UCHL1, pRII, and pERK1/2. The same UCHL1 intensities were observed among tested groups. Forskolin (Fsk), an activator of adenylyl cyclase, was used as a positive control. Fsk at 6 µM concentration induced an increase in pRII and pERK1/2 intensities at 5 and 30 min. Number of analyzed cells per replica: 750 ± 200. Eight independent replicas. C–F Concentration responses of xibalbin toxins (0.005 to 0.8 µg/µL) and mean intensities of pRII and pERK1/2 at 5 min and 30 min. G–H Size versus pRII and pErk1/2 intensities of cells treated with 0.8 µg/µL of xib1 and xib13. Small-sized cells were responding to xibalbins. Statistical significance was assessed using one-way ANOVA with Dunnett’s post hoc test. Data represent mean ± S.E.M (standard error of the mean), n = 4, see “Methods” for details and Additional File 6: Table S2 for individual data values
Male Sprague Dawley rats (250–400 g, 8–16 weeks old) were obtained from Envigo. Rats were kept in 12 h of light/darkness cycles. All experiments were performed in accordance with the German animal welfare law with permission of the District Government for Nature and Environment, NRW (84–02.05.20.13.045, 4.18.003). Rats were scarified by slow inhalation of CO2 which was followed by decapitation. DRGs were extracted from rats, deheated, pooled, and incubated in Neurobasal A/B27 medium (Invitrogen, #12349–015) supplemented with B-27 (Invitrogen #17504), L-glutamine 1:400, L-glutamate 1:270.3, and penicillin/streptomycin 1:100 containing 0.2 U/mL collagenase P (collagenase P, Roche, #1213857) and incubated for 1 h at 37 °C, 5% CO2. DRGs were dissociated with pasteur pipettes and axon stumps were separated by BSA (Sigma-Aldrich, # A2153-100G) gradient centrifugation (14% BSA, 120 g, 8 min). Cells were resuspended in NBA medium, plated in 96-well imaging plate (Greiner BioOne Sensoplate, Black, #655896) precoated with poly-L-ornithine hydrochloride (0.1 mg/ml Sigma, #P2533)/laminin (5 µg/ml Invitrogen, #23017–015), and incubated overnight at 37 °C, 5% CO2.
DRGs were stimulated after overnight incubation. Compounds were prepared as tenfold concentrated stock solutions, diluted in PBS (PAA, cat# H15-002), in v-bottom plates; 50 µL media from culture wells were mixed with the […] stock solutions, and 50 µL added back to the respective wells. Stimulation was performed with automated multichannel pipette and cells were kept in heated block during the stimulation. […]

Entries after “also recorded” stand apart in the source; their conditions may differ. Positions of bridges follow the written chain, without caps; N, C: chain ends. No end group written: not given here.

With “KRSCIRRFGRCDHRPNDCCYNSSCRCNLWGSNCRCQRMGLFQKWGK (disulfide 4-19, 11-24, 18-35, 26-33) [xib13]”, the “PKA-II activation” value is “increase PKA-II and Erk1/2 sensitization signaling; also recorded: increased PKA-II and pErk1/2 activity”; the “pRII response by neuron size” value is “increased phosphorylation signals in both small-sized and large-sized sensory neurons”. For the same sequence, the “increase in phospho-PKA-II intensity” value (0.4 µg/µL (74 µM), q = 3.29) was “up to 1.21 fold”. Also, the “increase in phospho-PKA-II intensity” value (0.8 µg/µL (148 µM), q = 4.17) was “up to 1.21 fold”. The “change in phospho-PKA-II intensity” value (30 min) is “No change”.

For “RLFCIRHHKYCGHRPKRCCSGLFCRCNTFGTNCRCQSKGALGKLI (disulfide 4-19, 11-24, 18-35, 26-33) [xib1]”, the “PKA-II activation” value was “increase PKA-II and Erk1/2 sensitization signaling; also recorded: increased PKA-II and pErk1/2 activity”; the “pRII response by neuron size” value was “increased phosphorylation signals in both small-sized and large-sized sensory neurons”.
